Reference: PMC9005681, “Use of AD Informer Set compounds to explore validity of novel targets in Alzheimer's disease pathology” (Alzheimer's & Dementia : Translational Research & Clinical …, 2022)
Where “and” joins values, the source holds several entries; their conditions need not be identical. Equal values may be shown once. Values belong to the compound of their own block, whether it stands above or below them.

Experiments:
Experiment in all cases: PDSP GPCR panel primary binding assays at 10 μM
Settings in all cases: primary assay
[1] = biological target: T1, cloned human or rodent CNS receptors, channels, and transporters (PDSP panel) (Homo sapiens, UniProt P08173)
T1 construct: expressed in transfected cells
T1 sequence (P08173 1-479): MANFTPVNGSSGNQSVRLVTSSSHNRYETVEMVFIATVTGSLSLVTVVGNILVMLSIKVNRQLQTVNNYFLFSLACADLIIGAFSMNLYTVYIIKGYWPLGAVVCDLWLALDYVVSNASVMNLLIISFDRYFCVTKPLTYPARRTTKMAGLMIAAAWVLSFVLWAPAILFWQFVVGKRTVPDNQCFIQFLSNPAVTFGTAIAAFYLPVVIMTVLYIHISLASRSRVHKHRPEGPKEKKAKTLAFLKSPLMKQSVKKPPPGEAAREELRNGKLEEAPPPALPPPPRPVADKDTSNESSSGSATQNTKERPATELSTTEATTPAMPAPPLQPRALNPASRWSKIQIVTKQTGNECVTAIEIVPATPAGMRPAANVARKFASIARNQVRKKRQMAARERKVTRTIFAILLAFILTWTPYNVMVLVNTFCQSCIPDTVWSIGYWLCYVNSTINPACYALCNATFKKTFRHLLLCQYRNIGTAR
Summary of the method: (§1)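 Competition binding with radiolabeled standard ligands, single 10 μM concentration, four replicates. Targets showing over 50% displacement were followed up with 11-point titrations in triplicate.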

[2] = biological target: T2, cloned human or rodent CNS receptors, channels, and transporters (PDSP panel) (Homo sapiens, UniProt P14416)
T2 construct: expressed in transfected cells
T2 sequence (P14416 whole entry): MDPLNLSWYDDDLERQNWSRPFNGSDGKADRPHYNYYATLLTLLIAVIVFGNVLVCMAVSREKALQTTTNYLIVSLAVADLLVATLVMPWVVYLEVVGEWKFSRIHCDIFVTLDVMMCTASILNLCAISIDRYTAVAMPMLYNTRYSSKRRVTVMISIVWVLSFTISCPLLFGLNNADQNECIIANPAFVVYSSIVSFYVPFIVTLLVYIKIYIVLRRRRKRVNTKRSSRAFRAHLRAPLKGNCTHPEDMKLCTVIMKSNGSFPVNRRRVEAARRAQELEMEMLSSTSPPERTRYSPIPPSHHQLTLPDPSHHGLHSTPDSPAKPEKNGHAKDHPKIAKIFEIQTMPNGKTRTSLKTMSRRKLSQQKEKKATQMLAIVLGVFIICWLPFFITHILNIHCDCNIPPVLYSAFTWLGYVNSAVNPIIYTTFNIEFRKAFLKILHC
Summary of the method: as §1

[3] = biological target: T3, cloned human or rodent CNS receptors, channels, and transporters (PDSP panel) (Homo sapiens, UniProt P18089)
T3 construct: expressed in transfected cells
T3 sequence (P18089 1-450): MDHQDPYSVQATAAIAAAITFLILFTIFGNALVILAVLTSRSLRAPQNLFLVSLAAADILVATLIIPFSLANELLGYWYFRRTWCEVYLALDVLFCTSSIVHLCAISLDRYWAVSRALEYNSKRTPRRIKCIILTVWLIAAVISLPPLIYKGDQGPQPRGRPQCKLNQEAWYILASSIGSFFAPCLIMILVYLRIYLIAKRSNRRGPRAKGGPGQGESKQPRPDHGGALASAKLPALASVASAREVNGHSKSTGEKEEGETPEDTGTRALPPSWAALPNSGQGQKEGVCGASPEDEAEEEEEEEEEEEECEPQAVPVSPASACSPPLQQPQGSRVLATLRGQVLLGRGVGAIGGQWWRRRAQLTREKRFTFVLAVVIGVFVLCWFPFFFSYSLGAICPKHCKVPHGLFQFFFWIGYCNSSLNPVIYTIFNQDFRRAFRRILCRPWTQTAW
Summary of the method: as §1

[4] = biological target: T4, cloned human or rodent CNS receptors, channels, and transporters (PDSP panel) (Homo sapiens, UniProt P28335)
T4 construct: expressed in transfected cells
T4 sequence (P28335 33-458): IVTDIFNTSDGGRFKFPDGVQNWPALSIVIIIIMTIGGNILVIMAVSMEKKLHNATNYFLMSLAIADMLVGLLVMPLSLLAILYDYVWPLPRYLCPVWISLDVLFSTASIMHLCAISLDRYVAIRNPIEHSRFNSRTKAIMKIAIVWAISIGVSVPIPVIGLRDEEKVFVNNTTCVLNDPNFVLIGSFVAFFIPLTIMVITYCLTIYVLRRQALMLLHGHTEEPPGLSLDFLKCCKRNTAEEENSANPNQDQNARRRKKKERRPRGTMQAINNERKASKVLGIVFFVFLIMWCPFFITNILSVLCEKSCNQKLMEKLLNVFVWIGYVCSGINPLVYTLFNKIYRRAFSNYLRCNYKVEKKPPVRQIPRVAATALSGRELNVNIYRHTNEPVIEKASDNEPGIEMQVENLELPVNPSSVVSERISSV
Summary of the method: as §1

[5] = biological target: T5, cloned human or rodent CNS receptors, channels, and transporters (PDSP panel) (Homo sapiens, UniProt P31645)
T5 construct: expressed in transfected cells
T5 sequence (P31645 whole entry): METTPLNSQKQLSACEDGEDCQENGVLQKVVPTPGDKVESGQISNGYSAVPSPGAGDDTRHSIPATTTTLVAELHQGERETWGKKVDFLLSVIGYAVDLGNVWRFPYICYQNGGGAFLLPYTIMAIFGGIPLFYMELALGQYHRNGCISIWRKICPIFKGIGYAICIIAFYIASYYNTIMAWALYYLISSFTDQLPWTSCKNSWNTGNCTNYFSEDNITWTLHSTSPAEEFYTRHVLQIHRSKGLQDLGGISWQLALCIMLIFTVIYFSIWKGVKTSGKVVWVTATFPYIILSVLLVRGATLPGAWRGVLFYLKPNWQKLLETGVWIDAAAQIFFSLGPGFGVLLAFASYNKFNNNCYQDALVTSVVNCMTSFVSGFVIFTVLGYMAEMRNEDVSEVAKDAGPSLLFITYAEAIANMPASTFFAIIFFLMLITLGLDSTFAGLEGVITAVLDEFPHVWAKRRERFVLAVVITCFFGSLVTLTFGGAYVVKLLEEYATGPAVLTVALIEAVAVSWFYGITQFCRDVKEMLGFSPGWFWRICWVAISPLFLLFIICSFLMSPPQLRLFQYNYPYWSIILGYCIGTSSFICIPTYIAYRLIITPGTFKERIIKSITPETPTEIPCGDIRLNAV
Summary of the method: as §1

[6] = biological target: T6, cloned human or rodent CNS receptors, channels, and transporters (PDSP panel) (Homo sapiens, UniProt P47898)
T6 construct: expressed in transfected cells
T6 sequence (P47898 whole entry): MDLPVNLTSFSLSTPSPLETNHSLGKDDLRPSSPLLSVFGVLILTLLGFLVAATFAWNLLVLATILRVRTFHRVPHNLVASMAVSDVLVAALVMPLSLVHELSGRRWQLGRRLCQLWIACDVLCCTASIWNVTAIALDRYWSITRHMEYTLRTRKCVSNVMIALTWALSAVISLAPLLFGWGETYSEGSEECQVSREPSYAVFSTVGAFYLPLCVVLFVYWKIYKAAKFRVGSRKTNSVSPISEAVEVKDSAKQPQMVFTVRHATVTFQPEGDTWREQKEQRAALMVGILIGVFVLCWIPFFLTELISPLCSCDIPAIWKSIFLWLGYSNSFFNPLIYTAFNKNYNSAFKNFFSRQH
Summary of the method: as §1

[7] = biological target: T7, cloned human or rodent CNS receptors, channels, and transporters (PDSP panel) (Homo sapiens, UniProt Q01959)
T7 construct: expressed in transfected cells
T7 sequence (Q01959 whole entry): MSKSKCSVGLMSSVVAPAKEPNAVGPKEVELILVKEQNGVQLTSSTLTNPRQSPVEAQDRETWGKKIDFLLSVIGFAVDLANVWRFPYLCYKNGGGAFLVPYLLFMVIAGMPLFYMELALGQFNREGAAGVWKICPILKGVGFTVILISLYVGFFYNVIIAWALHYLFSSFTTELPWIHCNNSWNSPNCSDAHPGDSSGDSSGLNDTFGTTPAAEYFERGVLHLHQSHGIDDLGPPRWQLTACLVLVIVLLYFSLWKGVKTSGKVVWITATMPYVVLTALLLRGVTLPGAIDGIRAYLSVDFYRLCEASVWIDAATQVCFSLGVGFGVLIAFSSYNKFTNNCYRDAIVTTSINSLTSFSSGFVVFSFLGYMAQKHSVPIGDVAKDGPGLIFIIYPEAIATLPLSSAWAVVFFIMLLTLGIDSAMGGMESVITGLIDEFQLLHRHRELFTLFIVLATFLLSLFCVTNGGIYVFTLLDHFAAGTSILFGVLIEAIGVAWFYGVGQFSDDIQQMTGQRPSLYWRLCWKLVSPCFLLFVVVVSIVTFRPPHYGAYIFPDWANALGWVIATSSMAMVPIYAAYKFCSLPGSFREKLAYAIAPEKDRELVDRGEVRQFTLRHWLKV
Summary of the method: as §1

[8] = biological target: T8, cloned human or rodent CNS receptors, channels, and transporters (PDSP panel) (Rattus norvegicus, UniProt P16257)
T8 construct: expressed in transfected cells
Summary of the method: as §1

Mean % ([1]; M4, mean inhibition): 14.93%
Inhibition 1 ([1]; M4, replicate 1): 10.45%
Inhibition 2 ([1]; M4, replicate 2): 4.02%
Inhibition 3 ([1]; M4, replicate 3): 7.46%
Inhibition 4 ([1]; M4, replicate 4): 37.78%
Mean % ([2]; D2, mean inhibition): -7.22%
Inhibition 1 ([2]; D2, replicate 1): 3.31%
Inhibition 2 ([2]; D2, replicate 2): -5.21%
Inhibition 3 ([2]; D2, replicate 3): -10.66%
Inhibition 4 ([2]; D2, replicate 4): -16.31%
Mean % ([3]; Alpha2B, mean inhibition): 9.85%
Inhibition 1 ([3]; Alpha2B, replicate 1): 12.19%
Inhibition 2 ([3]; Alpha2B, replicate 2): 4.49%
Inhibition 3 ([3]; Alpha2B, replicate 3): 0.5%
Inhibition 4 ([3]; Alpha2B, replicate 4): 22.22%
Mean % ([4]; 5-HT2C, mean inhibition): -14.6%
Inhibition 1 ([4]; 5-HT2C, replicate 1): 12.76%
Inhibition 2 ([4]; 5-HT2C, replicate 2): -11.29%
Inhibition 3 ([4]; 5-HT2C, replicate 3): -33.87%
Inhibition 4 ([4]; 5-HT2C, replicate 4): -26.01%
Mean % ([5]; SERT, mean inhibition): 7.19% and 15.11%
Inhibition 1 ([5]; SERT, replicate 1): 10.02% and 22.3%
Inhibition 2 ([5]; SERT, replicate 2): -5.87% and 16.69%
Inhibition 3 ([5]; SERT, replicate 3): 7.61% and 10.49%
Inhibition 4 ([5]; SERT, replicate 4): 16.99% and 10.96%
Mean % ([6]; 5-HT5A, mean inhibition): 0.62% and -5.72%
Inhibition 1 ([6]; 5-HT5A, replicate 1): 13.64% and 5.79%
Inhibition 2 ([6]; 5-HT5A, replicate 2): -10.06% and -11.12%
Inhibition 3 ([6]; 5-HT5A, replicate 3): -4.07% and -16.75%
Inhibition 4 ([6]; 5-HT5A, replicate 4): 2.96% and -0.78%
Mean % ([7]; DAT, mean inhibition): 54.13%
Inhibition 1 ([7]; DAT, replicate 1): 56.61%
Inhibition 2 ([7]; DAT, replicate 2): 53.37%
Inhibition 3 ([7]; DAT, replicate 3): 54.99%
Inhibition 4 ([7]; DAT, replicate 4): 51.53%
Mean % ([8]; PBR, mean inhibition): 61.99% and 50.52%
Inhibition 1 ([8]; PBR, replicate 1): 64.51% and 57.62%
Inhibition 2 ([8]; PBR, replicate 2): 61.79% and 51.24%
Inhibition 3 ([8]; PBR, replicate 3): 61.7% and 45.98%
Inhibition 4 ([8]; PBR, replicate 4): 59.94% and 47.25%
Structure (SMILES): CNc1nc(C)nc(N[C@H]2CCC[C@@H](C(=O)NCc3ccc(C#N)cc3C(F)(F)F)C2)n1 [UNC10302679A, GSK2256294A]

Structure (SMILES): c1cn2cc(-c3ccc4cn[nH]c4c3)nc(Nc3ccc(N4CCOCC4)cc3)c2n1 [UNC10302678A, Entospletinib (GS-9973)]
Inhibition 1 ([1]; Receptor M4, 10 μM): 35.72%
Inhibition 2 ([1]; Receptor M4, 10 μM): 0.8%
Inhibition 3 ([1]; Receptor M4, 10 μM): 6.09%
Inhibition 4 ([1]; Receptor M4, 10 μM): 23.54%
Mean % ([1]; Receptor M4, 10 μM, mean of Inhibition 1-4): 16.54%
Inhibition 1 ([2]; Receptor D2, 10 μM): 15.89%
Inhibition 2 ([2]; Receptor D2, 10 μM): 4.51%
Inhibition 3 ([2]; Receptor D2, 10 μM): -1.13%
Inhibition 4 ([2]; Receptor D2, 10 μM): -7.35%
Mean % ([2]; Receptor D2, 10 μM, mean of Inhibition 1-4): 2.98%
Inhibition 1 ([3]; Receptor Alpha2B, 10 μM): 1.15%
Inhibition 2 ([3]; Receptor Alpha2B, 10 μM): 1.83%
Inhibition 3 ([3]; Receptor Alpha2B, 10 μM): -12.73%
Inhibition 4 ([3]; Receptor Alpha2B, 10 μM): -4.05%
Mean % ([3]; Receptor Alpha2B, 10 μM, mean of Inhibition 1-4): -3.45%
Inhibition 1 ([4]; Receptor 5-HT2C, 10 μM): -15.71%
Inhibition 2 ([4]; Receptor 5-HT2C, 10 μM): 5.4%
Inhibition 3 ([4]; Receptor 5-HT2C, 10 μM): -17.18%
Inhibition 4 ([4]; Receptor 5-HT2C, 10 μM): -19.14%
Mean % ([4]; Receptor 5-HT2C, 10 μM, mean of Inhibition 1-4): -11.66%
Inhibition 1 ([5]; Receptor SERT, 10 μM): 60.12%
Inhibition 2 ([5]; Receptor SERT, 10 μM): 23.39% and 14.88%
Inhibition 3 ([5]; Receptor SERT, 10 μM): 22.83% and 32.36%
Inhibition 4 ([5]; Receptor SERT, 10 μM): 31.59% and 27.97%
Mean % ([5]; Receptor SERT, 10 μM, mean of Inhibition 1-4): 34.48% and 22.48%
Inhibition 1 ([6]; Receptor 5-HT5A, 10 μM): 7.17%
Inhibition 2 ([6]; Receptor 5-HT5A, 10 μM): -43.49%
Inhibition 3 ([6]; Receptor 5-HT5A, 10 μM): -3.12%
Inhibition 4 ([6]; Receptor 5-HT5A, 10 μM): -6.68%
Mean % ([6]; Receptor 5-HT5A, 10 μM, mean of Inhibition 1-4): -11.53%
Inhibition 1 ([7]; Receptor DAT, 10 μM): 27.87%
Inhibition 2 ([7]; Receptor DAT, 10 μM): 18.37%
Inhibition 3 ([7]; Receptor DAT, 10 μM): 25.5%
Inhibition 4 ([7]; Receptor DAT, 10 μM): 31.55%
Mean % ([7]; Receptor DAT, 10 μM, mean of Inhibition 1-4): 25.82%
Inhibition 1 ([8]; Receptor PBR, 10 μM): 4.64% and -2.11%
Inhibition 4 ([8]; Receptor PBR, 10 μM): 21.43% and 15.83%
Mean % ([8]; Receptor PBR, 10 μM, mean of Inhibition 1-4): 13.23% and 8.44%
